Experimental data from the supplement of paper PMC10307832.

Legend:
Experiment in all cases: relative viability (nuclei count vs DMSO), 5 days (fraction); higher = more cells survive
[1] = compound: CCC1=CN=CN=C1N2CCN(CC2)CC3=NC4=C(N3)C=C(C=C4)C(F)(F)F + Cc1nc(NC(=O)N2CCC[C@H]2C(N)=O)sc1-c1ccnc(C(C)(C)C(F)(F)F)c1 [Alpelisib] (partner 2 µM)
Outline: (§1)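 Relative viability divides the nuclei count in treated wells by that in vehicle wells. Lung cancer cell lines were seeded in 1536-well plates, dosed by pin tool the next day, and fixed and stained after 5 days in one step with final 0.05% Triton X-100, 1% formaldehyde and 1 ug/ml Hoechst. Dosing was a single drug or a fixed anchor-drug dose plus five library-drug doses (not always all listed) in √10 steps, and values are medians of duplicate plates imaged at 4×.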

[2] = compound: CCn1c(-c2nonc2N)nc2cnc(Oc3cccc(NC(=O)c4ccc(OCCN5CCOCC5)cc4)c3)cc21 + Cc1cc(Nc2cc(N3CCN(C)CC3)nc(Sc3ccc(NC(=O)C4CC4)cc3)n2)n[nH]1 [Tozasertib] (partner 0.1 µM)
Outline: as §1

Mirin + Navitoclax = compound: N=C1NC(=O)/C(=C/c2ccc(O)cc2)S1 [Mirin] + CC1(C)CCC(c2ccc(Cl)cc2)=C(CN2CCN(c3ccc(C(=O)NS(=O)(=O)c4ccc(N[C@H](CCN5CCOCC5)CSc5ccccc5)c(S(=O)(=O)C(F)(F)F)c4)cc3)CC2)C1 [Navitoclax] (partner 0.5 µM)
Outline: as §1

Mirin + AZD7762 = compound: N=C1NC(=O)/C(=C/c2ccc(O)cc2)S1 [Mirin] + NC(=O)Nc1cc(-c2cccc(F)c2)sc1C(=O)N[C@H]1CCCNC1 [AZD7762] (partner 0.2 µM)
Outline: as §1

Cell Line | relative viability ([1]; first compound 0.04 µM) | relative viability ([1]; first compound 0.1265 µM) | relative viability ([1]; first compound 0.4 µM) | relative viability ([1]; first compound 1.265 µM) | relative viability ([1]; first compound 4 µM) | relative viability ([2]; first compound 0.04 µM) | relative viability ([2]; first compound 0.1265 µM) | relative viability ([2]; first compound 0.4 µM) | relative viability ([2]; first compound 1.265 µM) | relative viability ([2]; first compound 4 µM) | relative viability (Mirin + Navitoclax; first compound 0.25 µM) | relative viability (Mirin + Navitoclax; first compound 0.7906 µM) | relative viability (Mirin + Navitoclax; first compound 2.5 µM) | relative viability (Mirin + Navitoclax; first compound 7.906 µM) | relative viability (Mirin + Navitoclax; first compound 25 µM) | relative viability (Mirin + AZD7762; first compound 0.25 µM) | relative viability (Mirin + AZD7762; first compound 0.7906 µM) | relative viability (Mirin + AZD7762; first compound 2.5 µM) | relative viability (Mirin + AZD7762; first compound 7.906 µM) | relative viability (Mirin + AZD7762; first compound 25 µM)
NCI-H3122 | 0.954 | 0.77 | 0.856 | 1.01 | 0.872 | 0.501 | 0.395 | 0.385 | 0.332 | 0.325 | 1.01 | 1.1 | 1.01 | 1.09 | 1.15 | 1.01 | 0.954 | 0.927 | 1.07 | 1.1
NCI-H2126 | 0.74 | 0.756 | 0.722 | 0.639 | 0.745 | 0.898 | 0.849 | 0.861 | – | 0.378 | 0.811 | 0.81 | 0.819 | 0.852 | 0.85 | 1.11 | 1.03 | 1.05 | 1.11 | 0.951
LOU-NH91 | 0.621 | 0.689 | 0.712 | 0.63 | 0.72 | 0.631 | 0.518 | 0.45 | 0.353 | 0.369 | 0.681 | – | 0.673 | 0.718 | 0.76 | 0.799 | 0.782 | 0.754 | 0.713 | 0.854
NCI-H1651 | 1.01 | 0.961 | 0.876 | 0.818 | 0.907 | 0.556 | 0.733 | 0.718 | 0.528 | 0.334 | 1.01 | 0.97 | 1.01 | 0.826 | 0.836 | 0.424 | 0.598 | 0.532 | 0.308 | 0.477
NCI-H460 | 0.445 | 0.559 | 0.385 | 0.398 | 0.583 | 0.563 | 0.601 | 0.311 | 0.036 | 0.0635 | 1.18 | 1.27 | 1.19 | 1.06 | 0.913 | 0.625 | 0.921 | 0.665 | 0.661 | 0.876
